16 molecules from article PMC11855827, “High-Throughput Screening of Five Compound Libraries for Anthelmintic Activity and Toxicity Leads to the Discovery of Two Flavonoid Compounds” (International Journal of Molecular Sciences, 2025) can be followed below.

In the test the test system is C. elegans. The conditions noted are these: Table S2, C. elegans SS assay, 110 μM, averages of 4 data points.

Turning to Madecassoside, the “Percentage of motility inhibition 0 h” value was 12% and the “Percentage of motility inhibition 24 h” value was found to be 1%.

`C[C@@]12C[C@H](c3ccoc3)O[C@@]13C[C@H](OC3=O)[C@H]1[C@H]2C[C@@H]2C[C@H]1C(=O)O2` [Diosbulbin B]: the “Percentage of motility inhibition 0 h” value was determined as 0% and the “Percentage of motility inhibition 24 h” value amounted to 31%.

Turning to `C[C@@H]1O[C@@H](O[C@H]2[C@H](O[C@H]3[C@H](O[C@H]4CC[C@]5(C)[C@H]6CC=C7[C@@H]8CC(C)(C)CC[C@]8(C(=O)O[C@@H]8O[C@H](CO[C@@H]9O[C@H](CO)[C@@H](O[C@@H]%10O[C@@H](C)[C@H](O)[C@@H](O)[C@H]%10O)[C@H](O)[C@H]9O)[C@@H](O)[C@H](O)[C@H]8O)CC[C@@]7(C)[C@]6(C)CC[C@H]5C4(C)C)OC[C@H](O)[C@@H]3O)O[C@H](CO)[C@@H](O)[C@@H]2O)[C@H](O)[C@H](O)[C@H]1O` [Raddeanoside R8], the “Percentage of motility inhibition 0 h” value is 3% and the “Percentage of motility inhibition 24 h” value was 0%.

For `O=C([O-])CCC(=O)[O-].[Na+].[Na+]` [Disodium succinate], the “Percentage of motility inhibition 0 h” value is listed as 19% and the “Percentage of motility inhibition 24 h” value came out at 1%.

As for `C/C=C(\C)C(=O)O[C@H]1[C@H](O)[C@]2(COC(C)=O)[C@@H](O)C[C@]3(C)C(=CC[C@@H]4[C@@]5(C)CC[C@H](O[C@@H]6O[C@H](C(=O)O)[C@@H](O)[C@H](O)[C@H]6O)[C@@](C)(CO)[C@@H]5CC[C@]43C)[C@@H]2CC1(C)C` [Gymnemic acid I], the “Percentage of motility inhibition 0 h” value is 20% and the “Percentage of motility inhibition 24 h” value is 0%.

For the molecule `Cn1cc[n+](C[C@@]2(C)[C@H](C(=O)[O-])N3C(=O)C[C@H]3S2(=O)=O)n1` [AAI101], the “Percentage of motility inhibition 0 h” value stood at 27% and the “Percentage of motility inhibition 24 h” value was 0%.

Consider `C[C@]12C[C@@H](O)[C@@H]3C[C@@]1(O[C@@H]1O[C@H](CO)[C@@H](O)[C@H](O)[C@H]1O)[C@@]3(COC(=O)c1ccccc1)C(=O)O2` [Albiflorin], for which the “Percentage of motility inhibition 0 h” value is recorded as 0% and the “Percentage of motility inhibition 24 h” value came to 2%.

Regarding `COc1cc2c(cc1O)C[C@H]1c3cc(O)c(OC)cc3CC[N+]1(C)C2.[Cl-]` (some centres unmarked) [Phellodendrine (chloride)], the “Percentage of motility inhibition 0 h” value came to 25% and the “Percentage of motility inhibition 24 h” value came to 7%.

For the molecule `C[C@]1(O)C[C@@H](O)[C@@H]2C=CO[C@@H](O[C@@H]3O[C@H](CO)[C@@H](O)[C@H](O)[C@H]3O)[C@@H]21` [Ajugol], the “Percentage of motility inhibition 0 h” value is 0% and the “Percentage of motility inhibition 24 h” value was found to be 2%.

`C[C@@H]1CCO[C@H]2Cn3cc(C(=O)NCc4ccc(F)cc4F)c(=O)c([O-])c3C(=O)N12.[Na+]` [Dolutegravir (sodium)]: the “Percentage of motility inhibition 0 h” value is recorded as 0% and the “Percentage of motility inhibition 24 h” value was 17%.

Turning to `CN[C@@H]1[C@H](O)[C@H](NC)[C@H]2O[C@@]3(O)C(=O)C[C@@H](C)O[C@H]3O[C@@H]2[C@H]1O.Cl.Cl` [Spectinomycin (dihydrochloride)], the “Percentage of motility inhibition 0 h” value is reported as 0% and the “Percentage of motility inhibition 24 h” value was 1%.

As for `COc1cc(C2Oc3ccc([C@H]4Oc5cc(O)cc(O)c5C(=O)[C@@H]4O)cc3OC2CO)ccc1O` (some centres unmarked) [Isosilybin], the “Percentage of motility inhibition 0 h” value amounted to 2% and the “Percentage of motility inhibition 24 h” value was 0%.

As for `COc1cc[nH]c(=O)c1C#N` [N‐Demethylricinine], the “Percentage of motility inhibition 0 h” value is 0% and the “Percentage of motility inhibition 24 h” value is 7%.

Consider `C=C(C(=O)O)[C@H]1CC[C@H](C)[C@@H]2CC(=O)C(C)=C2C1` [Rupestonic acid], for which the “Percentage of motility inhibition 0 h” value came to 0% and the “Percentage of motility inhibition 24 h” value amounted to 8%.

Take Clinodiside A: the “Percentage of motility inhibition 0 h” value stood at 1% and the “Percentage of motility inhibition 24 h” value was determined as 0%.

On to `O.O=C(O)[C@@H]1[C@H]2C[C@H]3c4[nH]c5ccccc5c4CCN3C[C@@H]2CC[C@@H]1O` [Yohimbic acid (hydrate)], for which the “Percentage of motility inhibition 0 h” value was 16% and the “Percentage of motility inhibition 24 h” value is 0%.
